Test results reported in ChEMBL document CHEMBL3244266, “Potential antiarthritic agents. 2. Benzoylacetonitriles and beta-aminocinnamonitriles” (J Med Chem, 1979).
The source made the active and inactive calls. No cut-off for these calls is given here.

Key:
[1] = tested on: Rattus norvegicus; assay: Antiinflammatory activity against carrageenin-induced edema in rat; assay type: functional, organism-based
[2] = organism: Rattus norvegicus; assay: Antiinflammatory activity against adjuvant-induced arthritis in rat assessed as inhibition of swelling; assay type: functional, organism-based
[3] = tested on: Rattus norvegicus; assay: Antiinflammatory activity against adjuvant-induced arthritis rat model assessed as inhibition of swelling at 2 mg/kg, po measured on day 21 (reference value: 0%); assay type: functional; details: 504 h
[4] = tested on: Rattus norvegicus; assay: Antiinflammatory activity against adjuvant-induced arthritis rat model assessed as inhibition of swelling at 0.5 mg/kg, po measured on day 21 (reference value: 0%); assay type: functional; details: 504 h
[5] = tested on: Rattus norvegicus; assay: Antiinflammatory activity against adjuvant-induced arthritis rat model assessed as inhibition of swelling at 2 mg/kg, po measured on day 14 (reference value: 0%); assay type: functional; details: 336 h
[6] = tested on: Rattus norvegicus; assay: Antiinflammatory activity against adjuvant-induced arthritis rat model assessed as inhibition of swelling at 1 mg/kg, po measured on day 21 (reference value: 0%); assay type: functional; details: 504 h
[7] = tested on: Rattus norvegicus; assay: Antiinflammatory activity against adjuvant-induced arthritis rat model assessed as inhibition of swelling at 1 mg/kg, po measured on day 14 (reference value: 0%); assay type: functional; details: 336 h
[8] = tested on: Rattus norvegicus; assay: Antiinflammatory activity against adjuvant-induced arthritis rat model assessed as inhibition of swelling at 0.5 mg/kg, po measured on day 14 (reference value: 0%); assay type: functional; details: 336 h
[9] = tested on: Rattus norvegicus; assay: Antiinflammatory activity against adjuvant-induced arthritis rat model assessed as inhibition of swelling at 50 mg/kg, po measured on day 21 (reference value: 0%); assay type: functional; details: 504 h
[10] = tested on: Rattus norvegicus; assay: Antiinflammatory activity against adjuvant-induced arthritis rat model assessed as inhibition of swelling at 25 mg/kg, po measured on day 21 (reference value: 0%); assay type: functional; details: 504 h
[11] = tested on: Rattus norvegicus; assay: Antiinflammatory activity against adjuvant-induced arthritis rat model assessed as inhibition of swelling at 100 mg/kg, po measured on day 21 (reference value: 0%); assay type: functional; details: 504 h
[12] = tested on: Rattus norvegicus; assay: Antiinflammatory activity against adjuvant-induced arthritis rat model assessed as inhibition of swelling at 100 mg/kg, po measured on day 14 (reference value: 0%); assay type: functional; details: 336 h
[13] = organism: Cavia porcellus; assay: Antiinflammatory activity against UV-induced erythema in guinea pig; assay type: functional, organism-based
[14] = tested on: Rattus norvegicus; assay: Ulcerogenicity in rat at 800 mg/kg administered daily; assay type: toxicity, organism-based; design: dose 800 mg/kg; details: in vivo
[15] = tested on: Rattus norvegicus; assay: Antiinflammatory activity against adjuvant-induced arthritis rat model assessed as inhibition of swelling at 50 mg/kg, po measured on day 14 (reference value: 0%); assay type: functional; details: 336 h
[16] = tested on: Rattus norvegicus; assay: Antiinflammatory activity against adjuvant-induced arthritis rat model assessed as inhibition of swelling at 25 mg/kg, po measured on day 14 (reference value: 0%); assay type: functional; details: 336 h
[17] = tested on: Plasma; assay: Drug recovery in rat plasma assessed as total radioactivity at 50 mg/kg, po measured over 7-day period by TLC/HPLC analysis; assay type: ADME, organism-based; design: dose 50 mg/kg, route oral; details: in vivo
[18] = Drug recovery in rat urine assessed as total radioactivity at 50 mg/kg, po measured after 24 hrs by TLC/HPLC analysis; assay type: ADME, organism-based; design: dose 50 mg/kg, route oral; details: in vivo
[19] = tested on: Rattus norvegicus; assay: Antiinflammatory activity against adjuvant-induced arthritis rat model assessed as inhibition of swelling at 200 mg/kg, po measured on day 14 (reference value: 0%); assay type: functional; details: 336 h
[20] = tested on: Rattus norvegicus; assay: Antiinflammatory activity against adjuvant-induced arthritis rat model assessed as inhibition of swelling at 200 mg/kg, po measured on day 21 (reference value: 0%); assay type: functional; details: 504 h
[21] = organism: Cavia porcellus; assay: Inhibition of prostaglandin synthetase in guinea pig lung assessed as net production of prostaglandin-like activity; details: tested as the 14C-labelled form
[22] = tested as the 14C-labelled form

Structure (SMILES) | inhibition in vivo at 50 mg/kg [9] [%] | inhibition in vivo at 25 mg/kg [10] [%] | inhibition in vivo at 100 mg/kg [11] [%] | inhibition in vivo at 100 mg/kg [12] [%] | Activity [13] | Activity [14] | Activity [1] | inhibition in vivo at 50 mg/kg [15] [%] | inhibition in vivo at 25 mg/kg [16] [%] | also measured
O=C(O)C(O)C(O)c1ccccc1 (centres undefined) |  |  |  |  |  |  |  |  |  | Activity [1, 22]: inactive; Activity [2, 22]: inactive
COc1ccc2c(c1)c(CC(=O)O)c(C)n2C(=O)c1ccc(Cl)cc1 [INDOMETHACIN] |  |  |  |  |  |  |  |  |  | inhibition in vivo at 2 mg/kg [3]: 24%; inhibition in vivo at 0.5 mg/kg [4]: 20%; inhibition in vivo at 2 mg/kg [5]: 68%; inhibition in vivo at 1 mg/kg [6]: 19%; inhibition in vivo at 1 mg/kg [7]: 46%; inhibition in vivo at 0.5 mg/kg [8]: 40%
N#C/C=C(\N)c1cccs1 | 23 | 10 | 27 | 49 | inactive | Non-toxic | inactive | 44 | 35 | 
N#CC[14C](=O)c1ccccc1 |  |  |  |  |  |  |  |  |  | Drug recovery [17]: 93.3%; Drug recovery [18]: 81.7%
O=C(O)CC(=O)c1ccccc1 |  |  |  |  |  |  |  |  |  | Activity [1, 22]: inactive; Activity [2, 22]: inactive
N#CCC(=O)c1cccc(F)c1 |  |  |  |  |  |  |  |  |  | Activity [2]: Active
N#CCC(=O)c1cccs1 | 18 |  | 42 | 58 | inactive | Non-toxic | inactive | 46 |  | inhibition in vivo at 200 mg/kg [19]: 72%; inhibition in vivo at 200 mg/kg [20]: 29%
N#CCC(=O)c1ccsc1 | 40 | 31 | 29 | 46 | inactive | Non-toxic | inactive | 55 | 52 | 
N#CCC(=O)c1ccccc1F | 42 | 33 | 48 | 63 | inactive | Non-toxic | inactive | 51 | 54 | 
N#CCC(=O)c1ccccc1 | 42 | 33 | 48 | 63 | inactive | Non-toxic | inactive | 51 | 54 | inhibition [21]: Active
N#C/C=C(\N)c1ccsc1 | 27 | 20 | 33 | 58 | inactive | Non-toxic | inactive | 48 | 37 | 
N#C/C=C(\N)c1ccc(F)cc1 | 25 | 14 | 29 | 53 | inactive | Non-toxic | inactive | 43 | 26 | 
N#C/C=C(\N)c1cccc(F)c1 |  |  |  |  |  |  |  |  |  | Activity [2]: Active
O=C(O)CNC(=O)c1ccccc1 |  |  |  |  |  |  |  |  |  | Activity [1, 22]: inactive; Activity [2, 22]: inactive
N#CCC(=O)c1ccc(F)cc1 | 37 | 17 | 32 | 46 | inactive | Non-toxic | inactive | 56 | 33 | 
N#CCC(O)c1ccccc1 (centres undefined) |  |  |  |  |  |  |  |  |  | Activity [1, 22]: inactive; Activity [2, 22]: inactive
N#C/C=C(\N)c1ccccc1 | 52 | 25 | 54 | 65 | Active |  | Active | 58 | 39 | 
